Laboratory results published in patent US20060100168A1, “Method of treating cancer using adenosine and its analogs” (The Trustee of Boston University, priority 2002, published 2006).

Key:
[1] = test system: primary rat bone marrow cells; assay: Thymidine incorporation assay; format: cell-based; conditions: 24 hours, IB-MECA at 100 μM
Experimental: Thymidine Incorporation Assay. Thymidine incorporation assays were performed as described (Zhang, Y., Wang, Z., and Ravid, K. The cell cycle in polyploid megakaryocytes is associated with reduced activity of cyclin B1-dependent cdc2 kinase. J Biol Chem, 271: 4266-4272, 1996) with modifications. Rat bone marrow cells were cultured in 25 cm^2 flasks at a concentration of 20×10^6 cells per 2 ml. After drug treatment for 24 hours, cells were incubated with ^3H-thymidine at a final concentration of 3 μCi/ml for 8 hours. For MCF-7 cells, cells were cultured in 6-well plates and incubated with ^3H-thymidine for 2 hours after drug treatment. Cells were divided into two portions, sixty percent of which were processed as described (Id.) to obtain tritium counts. The rest of the cells were lysed with Western blotting lysis buffer and protein concentrations were determined by Bio-Rad protein assay reagent (Bio-Rad, Hercules, Calif.). Tritium counts were normalized with corresponding protein concentrations to account for cell number variations.

[2] = test system: MCF-7 cells overexpressing ERα; assay: Growth of MCF-7 cells transiently transfected with pcDNA3-ERα; format: cell-based, human; conditions: 100 μM; one day; transfection efficiency approximately 40%
Experimental: Anchorage-dependent growth assay: Cells were plated into 6-well plates and grown overnight before treatments. The seeding concentration of MCF-7 cells was 2×10^5/well, which was determined during preliminary experiments as not allowing the cells to reach confluency within 3 days. Cells were treated either with vehicle or ligands, as indicated. Cells were detached by incubation with trypsin (Invitrogen, Carlsbad, Calif.) and counted with a hemacytometer before or after treatment. Transfections and Reporter Gene Assay: Transient transfection was performed using FuGene6 (Roche, Indianapolis, Ind.) transfection reagent according to manufacturer's protocol. Circular reporter plasmid pERE-Tk-Luc at 10 μg and 10 μg of pCMV-β-Gal (as a measure of efficiency of trasnfection) were transfected with 50 μl of FuGene6. Cells were split into 6 well plates 12 hours after transfection, and incubated overnight in fresh medium. […] Luciferase and β-galactosidase activities were measured as described before (43, 44).

[3] = test system: cyclin levels in HeLa cells; assay: Western blot of cyclins in HeLa cells; format: cell-based, human; conditions: data not shown
Experimental: Western Blot Analysis: Cells were washed three times in cold 1×PBS, and collected by scraping on ice. Western blot analysis was performed as we described before with the chemiluminescence method (41). Antibodies used in this study were: ERα (NeoMarkers, Ab-15), Cyclin A (Santa Cruz Biotech, H-432), Cyclin B1 (Santa Cruz Biotech, H-433), Cyclin E (Upstate Biotech, HE-12), p27 (Santa Cruz Biotech, F-8). ERα antibody was used at 1:100 dilutions. Cyclin A, cyclin B1 and p27 antibodies were used at 1:500 dilutions. Cyclin E antibody was used at 1:1000 dilutions.

CNC(=O)[C@H]1O[C@@H](n2cnc3c(NCc4cccc(I)c4)ncnc32)[C@H](O)[C@@H]1O [IB-MECA, N^6-(3-iodobenzyl)adenosine-5′-N-methyluronamide]
Thymidine incorporation reduced to [1]: 68% | Effect on growth of ERα-overexpressing cells [2]: moderate effect on growth | Cyclin levels [3]: no significant change
